This is an account of results in patent publication US20140315933A1, “CHEMICAL COMPOUNDS” (Pfizer Limited, priority 2013, published 2014).

Structures can show the parent of a compound that is named as a salt.

T1 sequence (Q96S37 with tags, fused parts or gaps): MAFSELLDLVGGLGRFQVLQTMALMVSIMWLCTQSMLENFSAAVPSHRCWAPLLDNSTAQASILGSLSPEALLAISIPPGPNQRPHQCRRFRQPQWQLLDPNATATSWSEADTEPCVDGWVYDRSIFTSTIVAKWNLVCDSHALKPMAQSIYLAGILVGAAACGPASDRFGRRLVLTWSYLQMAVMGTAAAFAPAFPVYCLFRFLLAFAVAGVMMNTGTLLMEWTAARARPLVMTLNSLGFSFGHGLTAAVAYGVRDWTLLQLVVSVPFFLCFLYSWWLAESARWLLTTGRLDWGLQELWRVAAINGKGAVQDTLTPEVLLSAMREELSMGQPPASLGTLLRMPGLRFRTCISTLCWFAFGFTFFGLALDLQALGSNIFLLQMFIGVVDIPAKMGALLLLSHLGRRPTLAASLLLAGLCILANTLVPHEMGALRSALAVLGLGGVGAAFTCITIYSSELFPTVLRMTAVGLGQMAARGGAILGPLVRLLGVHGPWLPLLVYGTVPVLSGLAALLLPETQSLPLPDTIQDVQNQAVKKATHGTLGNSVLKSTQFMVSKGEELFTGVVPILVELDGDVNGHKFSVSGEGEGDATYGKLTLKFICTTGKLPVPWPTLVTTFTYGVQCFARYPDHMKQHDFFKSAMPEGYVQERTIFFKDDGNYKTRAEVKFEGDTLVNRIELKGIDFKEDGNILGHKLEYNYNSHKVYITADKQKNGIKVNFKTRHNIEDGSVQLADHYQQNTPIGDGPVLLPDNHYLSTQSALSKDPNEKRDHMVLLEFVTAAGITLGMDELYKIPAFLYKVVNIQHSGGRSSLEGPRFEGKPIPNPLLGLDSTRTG

This test addresses T1, URAT-1 transporter (Homo sapiens, UniProt Q96S37).
T1 construct: expressed in transfected cells
As to the kind of experiment: URAT-1 inhibitor activity: [14C]-uric acid uptake into CHO-URAT1(L)GFP#8 (CHO#8) cells, scintillation proximity. It counts as cell-based. From the text: The nucleotide sequence for the long isoform of URAT1 (NM_144585) was C-terminally fused to that of enhanced green fluorescent protein (eGFP) (hereinafter referred to as URAT1(L)GFP). The combined sequence was codon-optimised and custom synthesized. The synthesized sequence was generated in pDONR221 Gateway entry vector (Invitrogen Life Technologies) prior to cloning in pLenti6.3/V5 Gateway destination vector (Invitrogen Life Technologies).
Lentiviral particles were generated according to ViraPower HiPerform expression system procedure (Invitrogen Life Technologies) and used to transduce CHO cells. Blasticidin selection enabled the generation of a stable clonal pool of cells, confirmed by expression of GFP and V5 epitope. The clonal pools were sorted using fluorescence-activated cell sorting (FACS) on the basis of GFP expression with the gating set at the top 50% of expression into single cells which were subsequently expanded to generate clonal lines. […] This cell line was used for all screening activities and is referred to as CHO-URAT1(L)GFP#8 or CHO#8.
The potency of the compounds of formula (I) as inhibitors of the URAT-1 transporter was determined as follows.
CHO#8 cells were cultured in cell line maintenance flasks in medium consisting of Dulbecco's modified Eagle medium (DMEM) with high glucose and sodium pyruvate (4.5 g of glucose per litre, Invitrogen Life Technologies), supplemented with heat-inactivated foetal bovine serum (FBC, 10% v/v), 1×NEAA (non-essential amino acids) and blasticidin (10 μg/ml). Cultures were grown in 175 cm^2 tissue culture flasks in a humidified incubator at approximately 37° C. in approximately 95% air/5% CO2. Near confluent CHO#8 cell cultures were harvested by trypsinisation, re-suspended in culture medium and the process was repeated once or twice weekly to provide sufficient cells for use.
Assay ready flasks were generated by the same method, except the cells were not cultured in blasticidin.
Assay ready frozen cells were generated by freezing 40,000,000 cells in 1 ml of FBS (without blasticidin) containing 10% DMSO per vial. One vial was sufficient for 5 assay plates. Each vial was thawed rapidly to 37° C., washed and re-suspended in pre-warmed culture medium for seeding onto assay plates.
CHO#8 cells were seeded onto Cytostar™ 96-well plates at a density of […]. The cells were cultured for 1 day at approximately 37° C. in a humidified incubator containing approximately 5% CO2 in air. After approximately 24 hours culture, cells were used for uptake experiments.
On the day of assay, culture medium was removed from the wells and the cells were washed once with 50 μL of chloride-containing buffer (136.7 mM NaCl, 5.36 mM KCl, 0.952 mM CaCl2, 0.441 mM KH2PO4, 0.812 mM MgSO4, 5.6 mM D-glucose, 0.383 mM Na2HPO4.2H2O, 10 mM HEPES, pH 7.4 with NaOH). The cells were pre-incubated with another 50 μL of chloride-containing buffer for one hour at approximately 37° C. in a humidified incubator containing approximately 5% CO2 in air.
Assay compound plates were prepared by diluting the compounds of formula (I) with chloride-free buffer (125 mM Na-gluconate, 4.8 mM K-gluconate, 1.3 mM Ca-gluconate, 1.2 mM KH2PO4, 1.2 mM MgSO4, 5.6 mM D-glucose, 25 mM HEPES, pH 7.4 with NaOH) in 100% DMSO to a final concentration of 1% DMSO. [^14C]-Uric Uric acid working stock was made by addition of radiolabeled compound to a final concentration of 120 nM in chloride-free buffer. In all wells, the final assay concentration of solvent (DMSO) was 0.25%; the final assay concentration of [^14C]-uric acid was 30 nM in chloride-free buffer and the final compound of formula (I) concentrations ranged from 0 to 10 μM.
After pre-incubation, cells were washed with 50 μL of chloride-free buffer and another 50 μL of chloride-free buffer was added. […]
(In general: Scintillation proximity formats need no separation of bound from free tracer.)
Usually IC50 stands for the concentration that gives 50% inhibition. In the case of `COc1ccc(OC(F)(F)F)cc1Oc1ccc(S(=O)(=O)Nc2ncns2)cc1C#N` [Example 28, 3-cyano-4-[2-methoxy-5-(trifluoromethoxy)phenoxy]-N-(1,2,4-thiadiazol-5-yl)benzenesulfonamide diethylamine salt], the IC50 was greater than 7.45 µM.

Compound `COc1ccc(C(F)(F)F)cc1Oc1ccc(S(=O)(=O)Nc2ncns2)cc1C#N` [Example 29, 3-cyano-4-[2-methoxy-5-(trifluoromethyl)phenoxy]-N-(1,2,4-thiadiazol-5-yl)benzenesulfonamide diethylamine salt] showed an IC50 greater than 6.08 µM.

As to `N#Cc1cc(S(=O)(=O)Nc2ncns2)ccc1Oc1ccc(Cl)cc1OC1CCC1` [Example 30, 4-[4-chloro-2-(cyclobutyloxy)phenoxy]-3-cyano-N-(1,2,4-thiadiazol-5-yl)benzenesulfonamide diethylamine salt], half-maximal inhibition (IC50) required 0.609 µM.

The compound `N#Cc1cc(S(=O)(=O)Nc2ncns2)ccc1Oc1cc(Cl)ccc1OC(F)F` [Example 31, 4-[5-chloro-2-(difluoromethoxy)phenoxy]-3-cyano-N-(1,2,4-thiadiazol-5-yl)benzenesulfonamide] gave an IC50 of 2.22 µM.

Consider `N#Cc1cc(S(=O)(=O)Nc2ncns2)ccc1Oc1ccc(Cl)cc1OC(F)(F)F` [Example 32, 4-[4-chloro-2-(trifluoromethoxy)phenoxy]-3-cyano-N-(1,2,4-thiadiazol-5-yl)benzenesulfonamide diethylamine salt], for which 0.986 µM corresponded to half-maximal inhibition (IC50).

In turn, `N#Cc1cc(S(=O)(=O)Nc2ncns2)ccc1Oc1ccc(C(F)(F)F)cc1C(F)(F)F` [Example 33, 4-[2,4-bis(trifluoromethyl)phenoxy]-3-cyano-N-(1,2,4-thiadiazol-5-yl)benzenesulfonamide] displayed an IC50 of 6.19 µM.

`N#Cc1cc(S(=O)(=O)Nc2ncns2)ccc1Oc1ccccc1C(F)(F)F` [Example 35, 3-cyano-4-(2-(trifluoromethyl)phenoxy)-N-(1,2,4-thiadiazol-5-yl)benzenesulfonamide] showed an IC50 of 4.32 µM.

For `N#Cc1cc(S(=O)(=O)Nc2ncns2)ccc1Oc1ccccc1F` [Example 36, 3-cyano-4-(2-fluorophenoxy)-N-(1,2,4-thiadiazol-5-yl)benzenesulfonamide], the IC50 came out at 1.94 µM.

As to `CC(C)(C)c1ccc(Oc2ccc(S(=O)(=O)Nc3ncns3)cc2C#N)c(Cl)c1` [Example 38, 4-(4-tert-butyl-2-chlorophenoxy)-3-cyano-N-(1,2,4-thiadiazol-5-yl)benzenesulfonamide], the half-inhibitory concentration (IC50) was greater than 7.1 µM.

Compound `Cc1cc(F)ccc1Oc1ccc(S(=O)(=O)Nc2ncns2)cc1C#N` [Example 39, 3-cyano-4-(4-fluoro-2-methylphenoxy)-N-(1,2,4-thiadiazol-5-yl)benzenesulfonamide] registered an IC50 of 0.994 µM.

The compound `Cc1ccc(Cl)cc1Oc1ccc(S(=O)(=O)Nc2ncns2)cc1C#N` [Example 40, 4-(5-chloro-2-methylphenoxy)-3-cyano-N-(1,2,4-thiadiazol-5-yl)benzenesulfonamide] gave an IC50 greater than 2.92 µM.

`Cc1ccc(F)cc1Oc1ccc(S(=O)(=O)Nc2ncns2)cc1C#N` [Example 41, 3-cyano-4-(5-fluoro-2-methylphenoxy)-N-(1,2,4-thiadiazol-5-yl)benzenesulfonamide]: inhibition was half-maximal at 1.35 µM (IC50). That is a single-digit micromolar value.

As for `Cc1cc(Cl)ccc1Oc1ccc(S(=O)(=O)Nc2ncns2)cc1C#N` [Example 42, 4-(4-chloro-2-methylphenoxy)-3-cyano-N-(1,2,4-thiadiazol-5-yl)benzenesulfonamide], the IC50 was greater than 3.09 µM.

The compound `N#Cc1cc(S(=O)(=O)Nc2ncns2)ccc1Oc1ccc(F)cc1F` [Example 43, 3-cyano-4-(2,4-difluorophenoxy)-N-(1,2,4-thiadiazol-5-yl)benzenesulfonamide] had an IC50 of 0.877 µM.

`N#Cc1cc(S(=O)(=O)Nc2ncns2)ccc1Oc1cc(C(F)(F)F)ccc1F` [Example 44, 3-cyano-4-[2-fluoro-5-(trifluoromethyl)phenoxy]-N-(1,2,4-thiadiazol-5-yl)benzenesulfonamide] gave an IC50 of 4.33 µM.

As to `N#Cc1cc(S(=O)(=O)Nc2ncns2)ccc1Oc1cc(C(F)(F)F)ccc1Cl` [Example 45, 4-[2-chloro-5-(trifluoromethyl)phenoxy]-3-cyano-N-(1,2,4-thiadiazol-5-yl)benzenesulfonamide], inhibition was half-maximal at 1.02 µM (IC50).

`N#Cc1cc(S(=O)(=O)Nc2ncns2)ccc1Oc1ccc(F)cc1Cl` [Example 46, 4-(2-chloro-4-fluorophenoxy)-3-cyano-N-(1,2,4-thiadiazol-5-yl)benzenesulfonamide] came in with an IC50 of 0.504 µM. Compared with the last compound, the IC50 is about 2-fold lower.

Compound `N#Cc1cc(F)ccc1Oc1ccc(S(=O)(=O)Nc2ncns2)cc1C#N` [Example 47, 3-cyano-4-(2-cyano-4-fluorophenoxy)-N-(1,2,4-thiadiazol-5-yl)benzenesulfonamide] registered an IC50 of 5.39 µM.

The compound `N#Cc1cc(S(=O)(=O)Nc2ncns2)ccc1Oc1cccc(Cl)c1F` [Example 48, 4-(3-chloro-2-fluorophenoxy)-3-cyano-N-(1,2,4-thiadiazol-5-yl)benzenesulfonamide] returned an IC50 of 1.96 µM.

Consider `N#Cc1cc(S(=O)(=O)Nc2ncns2)ccc1Oc1cccc(F)c1F` [Example 49, 3-cyano-4-(2,3-difluorophenoxy)-N-(1,2,4-thiadiazol-5-yl)benzenesulfonamide], for which the IC50 is 1.46 µM.

In turn, `N#Cc1cc(S(=O)(=O)Nc2ncns2)ccc1Oc1cc(F)ccc1F` [Example 50, 3-cyano-4-(2,5-difluorophenoxy)-N-(1,2,4-thiadiazol-5-yl)benzenesulfonamide] registered an IC50 of 2.55 µM.

On to `N#Cc1ccc(Oc2ccc(S(=O)(=O)Nc3ncns3)cc2C#N)c(F)c1` [Example 51, 3-cyano-4-(4-cyano-2-fluorophenoxy)-N-(1,2,4-thiadiazol-5-yl)benzenesulfonamide], for which the IC50 was found to be 2.14 µM.

`N#Cc1cc(S(=O)(=O)Nc2ncns2)ccc1Oc1ccc(Cl)cc1F` [Example 52, 4-(4-chloro-2-fluorophenoxy)-3-cyano-N-(1,2,4-thiadiazol-5-yl)benzenesulfonamide] displayed an IC50 of 0.65 µM.

In turn, `N#Cc1cc(S(=O)(=O)Nc2ncns2)ccc1Oc1cccc(C(F)(F)F)c1F` [Example 53, 3-cyano-4-[2-fluoro-3-(trifluoromethyl)phenoxy]-N-(1,2,4-thiadiazol-5-yl)benzenesulfonamide] gave an IC50 of 5.24 µM.

As for `N#Cc1cc(S(=O)(=O)Nc2ncns2)ccc1Oc1cccc(C(F)(F)F)c1` [Example 54, 3-cyano-N-(1,2,4-thiadiazol-5-yl)-4-[3-(trifluoromethyl)phenoxy]benzene sulfonamide], the IC50 came to 2.85 µM.

Take `N#Cc1cc(S(=O)(=O)Nc2ncns2)ccc1Oc1cc(Cl)ccc1Cl` [Example 55, 3-cyano-4-(2,5-dichlorophenoxy)-N-(1,2,4-thiadiazol-5-yl)benzenesulfonamide]: the IC50 came out at 0.59 µM.

As to `CCc1cc(F)ccc1Oc1ccc(S(=O)(=O)Nc2ncns2)c(C#N)c1` [Example 56, 2-cyano-4-(2-ethyl-4-fluorophenoxy)-N-(1,2,4-thiadiazol-5-yl)benzenesulfonamide], 2.12 µM corresponded to half-maximal inhibition (IC50).

For the compound `[2H]C([2H])([2H])Oc1cc(Cl)ccc1Oc1ccc(S(=O)(=O)Nc2ncns2)cc1C#N` [Example 57], the IC50 is 0.517 µM. This IC50 lies about 4.1-fold lower than the previous one.

`Cn1cc(NS(=O)(=O)c2ccc(Oc3ccc(C#N)c(Cl)c3)c(C#N)c2)cn1` [Example 58, 4-(3-chloro-4-cyanophenoxy)-3-cyano-N-(1-methyl-1H-pyrazol-4-yl)benzenesulfonamide] had an IC50 greater than 10 µM.

On to `Cc1cc(NS(=O)(=O)c2ccc(Oc3ccc(C#N)c(Cl)c3)c(C#N)c2)on1` [Example 59, 4-(3-chloro-4-cyanophenoxy)-3-cyano-N-(3-methyl-1,2-oxazol-5-yl)benzenesulfonamide], for which the IC50 was greater than 10 µM.
